We go through 17 molecules from ChEMBL document CHEMBL2311461, “Linear and cyclic glycopeptide as HIV protease inhibitors” (Eur J Med Chem, 2013).

pIC50: −log10 of the molar value.

This test in a line: Inhibition of C-south african HIV-1 protease assessed as hydrolysis of the chromogenic peptide substrate Lys-Ala-Arg-Val-Nle-p-nitro-Phe-Glu-Ala-Nle-NH2. Further details: species or system Human immunodeficiency virus 1.
Turning to `CC[C@H](C)[C@H](NC(=O)[C@H](C)NC(=O)C[C@H](N)C1O[C@@H]2OC(C)(C)O[C@@H]2[C@H]1OCc1ccccc1)C(=O)N[C@@H](COCc1ccccc1)C(=O)O` (some centres not stated), the negative logarithm of the IC50 (pIC50) is < 5.00. For `CC(C)[C@H](NC(=O)[C@H](Cc1ccccc1)NC(=O)C[C@H](NCc1ccccc1)C1O[C@@H]2OC(C)(C)O[C@@H]2[C@H]1OCc1ccccc1)C(=O)N[C@@H](C)C(=O)O` (some centres not stated), the pIC50 was 5.62. The figure for `CC(C)[C@H](NC(=O)[C@H](Cc1ccccc1)NC(=O)C[C@H](N)C1O[C@@H]2OC(C)(C)O[C@@H]2[C@H]1OCc1ccccc1)C(=O)N[C@@H](C)C(=O)O` (some centres not stated) is 5.87; for `CC[C@H](C)[C@H](NC(=O)[C@H](C)NC(=O)[C@H](CCC(=O)OCc1ccccc1)NC(=O)C[C@H](N)C1O[C@@H]2OC(C)(C)O[C@@H]2[C@H]1OCc1ccccc1)C(=O)O` (some centres not stated) it is 5.46; for `CC[C@H](C)[C@@H]1NC(=O)[C@H](C)NC(=O)[C@H](CCC(=O)OCc2ccccc2)NC(=O)C[C@@H](C2O[C@@H]3OC(C)(C)O[C@@H]3[C@H]2OCc2ccccc2)NC1=O` (some centres not stated) it is 5.60.

For the molecule `COC(=O)N[C@H](C(=O)N[C@@H](Cc1ccccc1)[C@@H](O)CN(Cc1ccc(-c2ccccn2)cc1)NC(=O)[C@@H](NC(=O)OC)C(C)(C)C)C(C)(C)C` [ATAZANAVIR], the negative-log IC50 (pIC50) is 8.40. As for `CC[C@H](C)[C@H](NC(=O)[C@H](C)NC(=O)C[C@H](NCc1ccccc1)C1O[C@@H]2OC(C)(C)O[C@@H]2[C@H]1OCc1ccccc1)C(=O)N[C@@H](COCc1ccccc1)C(=O)O` (some centres not stated), the pIC50 was < 5.00. For `CC[C@H](C)[C@H](NC(=O)[C@H](C)NC(=O)[C@H](CCC(=O)OCc1ccccc1)NC(=O)C[C@H](NCc1ccccc1)C1O[C@@H]2OC(C)(C)O[C@@H]2[C@H]1OCc1ccccc1)C(=O)O` (some centres not stated), the negative logarithm of the IC50 (pIC50) is 5.30. Then `CC[C@H](C)[C@@H]1NC(=O)[C@H](C)NC(=O)[C@H](CCC(=O)O)NC(=O)C[C@@H](C2O[C@@H]3OC(C)(C)O[C@@H]3[C@H]2O)NC1=O` (some centres not stated), with 5.58; and `CC[C@H](C)[C@@H]1NC(=O)[C@H](C)NC(=O)C[C@@H](C2O[C@@H]3OC(C)(C)O[C@@H]3[C@H]2OCc2ccccc2)NC(=O)[C@H](COCc2ccccc2)NC1=O` (some centres not stated), with < 5.00; and `CC[C@H](C)[C@H](NC(=O)[C@H](C)NC(=O)[C@H](CCC(=O)O)NC(=O)C[C@H](N)C1O[C@@H]2OC(C)(C)O[C@@H]2[C@H]1O)C(=O)O` (some centres not stated), with 5.52. Then `Cc1cccc(C)c1OCC(=O)N[C@@H](Cc1ccccc1)[C@@H](O)C[C@H](Cc1ccccc1)NC(=O)[C@H](C(C)C)N1CCCNC1=O` [LOPINAVIR], with 7.60; and `CC(C)[C@H](NC(=O)[C@H](Cc1ccccc1)NC(=O)C[C@H](N)C1O[C@@H]2OC(C)(C)O[C@@H]2[C@H]1O)C(=O)N[C@@H](C)C(=O)O` (some centres not stated), with 5.96.

As for `CC(C)[C@@H]1NC(=O)[C@H](Cc2ccccc2)NC(=O)C[C@@H](C2O[C@@H]3OC(C)(C)O[C@@H]3[C@H]2O)NC(=O)[C@H](C)NC1=O` (some centres not stated), the pIC50 is 6.02. Take `CC(C)[C@@H]1NC(=O)[C@H](Cc2ccccc2)NC(=O)C[C@@H](C2O[C@@H]3OC(C)(C)O[C@@H]3[C@H]2OCc2ccccc2)NC(=O)[C@H](C)NC1=O` (some centres not stated): the pIC50 was 5.19.

As to `CC[C@H](C)[C@@H]1NC(=O)[C@H](C)NC(=O)C[C@@H](C2O[C@@H]3OC(C)(C)O[C@@H]3[C@H]2O)NC(=O)[C@H](CO)NC1=O` (some centres not stated), the pIC50 is 5.52. In the case of `CC[C@H](C)[C@H](NC(=O)[C@H](C)NC(=O)C[C@H](N)C1O[C@@H]2OC(C)(C)O[C@@H]2[C@H]1O)C(=O)N[C@@H](CO)C(=O)O` (some centres not stated), the pIC50 was 5.82.

The pIC50 is the IC50 on a negative log10 scale, so that one unit is a factor of ten.
